{"source": "patent US12410152B2", "about": "“Oxazole and thioazole-type cullin ring ubiquitin ligase compounds and uses thereof” (Proxygen GmbH, priority 2019, dated 2025)", "type_in_all_cases": "cell-based", "key": {"CDK12/13 [1]": {"molecular_target": "T1, CDK12/13 (Homo sapiens, UniProt Q9NYV4)", "T1 construct": "endogenous in cells; host or cells: KBM7 cells", "assay": "CDK12/13 destabilization (expression proteomics and Western blot)", "protocol": "(§1) The hypomorphic phenotype of the mutated UBE2M allele in KBM7 cells (KBM7 UBE2M^mut cells) was assessed. In this regard, CRISPR/Cas9-induced mutation of UBE2M inactivated CRL activity including CRL4^CRBN and CRL2^VHL. […] Additionally, CCNK destabilization by all three compounds was validated via time-resolved immunoblots wherein CCNK degradation was evident after two hours (FIG. 19c).\n(§2) PBS-washed cell pellets were lysed in 50 mM Tris pH 7.9, 8M Urea and 1% CHAPS and incubated with shaking at 4° C. for at least 30 min. 20 μg of supernatants were run and transferred for detection. Antibodies used: CUL1 (Santa Cruz Biotechnology, sc-1276), CUL2 (Sigma-Aldrich, SAB2501565-100), CUL3 (Cell Signaling Technology, 2759), CUL4A (Cell Signaling Technology, 2699S), CUL4B (Proteintech, 12916-1-AP), CUL5 (Santa Cruz Biotechnology, sc-373822), UBE2M (Santa Cruz Biotechnology, sc-390064), DDB1 (Cell Signaling Technology, 5428S), CCNK (Bethyl, A301-939A), CDK12 (Cell Signaling Technology, 11973S), CDK13 (Bethyl, A301-458A), RBM39 (1:500, Santa Cruz Biotechnology sc-376531), V5 (Cell Signaling Technology, 13202), Ubiquityl-Histone H2A (K119) (Cell Signaling, 8240-20). ACTIN (Sigma-Aldrich, A5441), VINCUL1N (Santa Cruz Biotechnology, sc-25336). Secondary antibodies anti-mouse/rabbit/goat (Jackson ImmunoResearch 115-035-003, 111-035-003 and 705-035-003).\n(§3) Comparison of overall proteome-wide changes in KBM7 cells treated with IC020772.1 (2.5 μM), IC021313.2 (7 μM) or T6938051 (3.5 μM) for 5 h and 12h, using quantitative proteomics based on isobaric tagging."}, "[2]": {"test_system": "T2, cyclin K (CCNK) (Homo sapiens)", "T2 construct": "endogenous in cells; host or cells: KBM7 cells (WT and UBE2M/CUL4B/UBE2G1 mutant clones)", "T2 sequence (O75909 whole entry partner)": "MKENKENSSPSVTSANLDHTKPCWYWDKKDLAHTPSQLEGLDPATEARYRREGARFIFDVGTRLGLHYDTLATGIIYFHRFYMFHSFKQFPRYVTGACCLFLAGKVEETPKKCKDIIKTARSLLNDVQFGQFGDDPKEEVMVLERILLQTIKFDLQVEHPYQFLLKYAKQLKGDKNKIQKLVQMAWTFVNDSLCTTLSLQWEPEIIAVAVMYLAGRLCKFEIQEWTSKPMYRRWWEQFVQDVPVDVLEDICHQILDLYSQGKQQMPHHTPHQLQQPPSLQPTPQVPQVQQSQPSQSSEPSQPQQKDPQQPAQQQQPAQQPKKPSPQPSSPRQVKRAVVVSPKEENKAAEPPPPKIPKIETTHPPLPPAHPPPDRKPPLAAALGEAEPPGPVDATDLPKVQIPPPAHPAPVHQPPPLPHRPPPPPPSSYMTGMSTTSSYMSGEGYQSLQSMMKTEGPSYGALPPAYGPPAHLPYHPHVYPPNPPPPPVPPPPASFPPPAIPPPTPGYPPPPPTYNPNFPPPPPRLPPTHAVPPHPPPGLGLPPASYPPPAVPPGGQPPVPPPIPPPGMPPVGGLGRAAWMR", "T2 sequence (Q9NYV4 whole entry, further chain)": "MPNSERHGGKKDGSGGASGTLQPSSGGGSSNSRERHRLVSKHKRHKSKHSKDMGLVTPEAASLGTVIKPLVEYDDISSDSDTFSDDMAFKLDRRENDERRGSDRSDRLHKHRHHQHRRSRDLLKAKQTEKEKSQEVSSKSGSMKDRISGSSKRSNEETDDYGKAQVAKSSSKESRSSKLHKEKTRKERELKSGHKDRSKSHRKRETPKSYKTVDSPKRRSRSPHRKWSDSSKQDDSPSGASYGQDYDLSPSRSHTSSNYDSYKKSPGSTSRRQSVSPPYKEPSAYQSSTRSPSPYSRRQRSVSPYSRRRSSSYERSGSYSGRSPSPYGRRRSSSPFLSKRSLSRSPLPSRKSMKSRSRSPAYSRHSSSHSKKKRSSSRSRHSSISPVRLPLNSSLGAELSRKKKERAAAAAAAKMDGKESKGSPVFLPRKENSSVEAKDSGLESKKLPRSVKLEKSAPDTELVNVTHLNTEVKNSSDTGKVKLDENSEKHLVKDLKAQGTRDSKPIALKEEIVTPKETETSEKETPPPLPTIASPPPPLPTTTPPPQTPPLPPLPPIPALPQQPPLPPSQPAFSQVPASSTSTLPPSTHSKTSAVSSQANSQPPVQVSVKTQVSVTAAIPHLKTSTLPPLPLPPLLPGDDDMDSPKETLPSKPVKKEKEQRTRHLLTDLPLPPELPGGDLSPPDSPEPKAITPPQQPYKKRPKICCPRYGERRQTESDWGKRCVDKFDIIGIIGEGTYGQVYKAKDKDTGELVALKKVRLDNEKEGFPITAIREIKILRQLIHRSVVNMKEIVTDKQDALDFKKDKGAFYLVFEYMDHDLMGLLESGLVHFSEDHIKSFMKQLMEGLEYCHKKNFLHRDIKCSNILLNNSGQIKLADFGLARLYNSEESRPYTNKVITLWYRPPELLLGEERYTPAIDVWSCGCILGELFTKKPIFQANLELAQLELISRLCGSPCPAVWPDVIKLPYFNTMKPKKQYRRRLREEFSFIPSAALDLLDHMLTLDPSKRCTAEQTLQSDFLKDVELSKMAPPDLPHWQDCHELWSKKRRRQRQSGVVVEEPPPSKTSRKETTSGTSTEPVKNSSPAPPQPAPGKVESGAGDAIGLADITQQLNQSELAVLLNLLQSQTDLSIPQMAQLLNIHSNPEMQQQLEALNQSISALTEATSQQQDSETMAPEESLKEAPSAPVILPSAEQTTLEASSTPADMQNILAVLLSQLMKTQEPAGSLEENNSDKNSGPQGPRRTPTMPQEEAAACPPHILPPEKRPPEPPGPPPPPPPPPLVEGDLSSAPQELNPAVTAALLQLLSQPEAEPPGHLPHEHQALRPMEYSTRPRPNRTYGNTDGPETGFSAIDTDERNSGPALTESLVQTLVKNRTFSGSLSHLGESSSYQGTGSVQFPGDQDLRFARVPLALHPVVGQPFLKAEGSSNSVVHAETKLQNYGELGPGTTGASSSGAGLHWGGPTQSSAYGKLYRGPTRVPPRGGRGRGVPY", "T2 sequence (Q16531 2-1140 limits assumed, further chain)": "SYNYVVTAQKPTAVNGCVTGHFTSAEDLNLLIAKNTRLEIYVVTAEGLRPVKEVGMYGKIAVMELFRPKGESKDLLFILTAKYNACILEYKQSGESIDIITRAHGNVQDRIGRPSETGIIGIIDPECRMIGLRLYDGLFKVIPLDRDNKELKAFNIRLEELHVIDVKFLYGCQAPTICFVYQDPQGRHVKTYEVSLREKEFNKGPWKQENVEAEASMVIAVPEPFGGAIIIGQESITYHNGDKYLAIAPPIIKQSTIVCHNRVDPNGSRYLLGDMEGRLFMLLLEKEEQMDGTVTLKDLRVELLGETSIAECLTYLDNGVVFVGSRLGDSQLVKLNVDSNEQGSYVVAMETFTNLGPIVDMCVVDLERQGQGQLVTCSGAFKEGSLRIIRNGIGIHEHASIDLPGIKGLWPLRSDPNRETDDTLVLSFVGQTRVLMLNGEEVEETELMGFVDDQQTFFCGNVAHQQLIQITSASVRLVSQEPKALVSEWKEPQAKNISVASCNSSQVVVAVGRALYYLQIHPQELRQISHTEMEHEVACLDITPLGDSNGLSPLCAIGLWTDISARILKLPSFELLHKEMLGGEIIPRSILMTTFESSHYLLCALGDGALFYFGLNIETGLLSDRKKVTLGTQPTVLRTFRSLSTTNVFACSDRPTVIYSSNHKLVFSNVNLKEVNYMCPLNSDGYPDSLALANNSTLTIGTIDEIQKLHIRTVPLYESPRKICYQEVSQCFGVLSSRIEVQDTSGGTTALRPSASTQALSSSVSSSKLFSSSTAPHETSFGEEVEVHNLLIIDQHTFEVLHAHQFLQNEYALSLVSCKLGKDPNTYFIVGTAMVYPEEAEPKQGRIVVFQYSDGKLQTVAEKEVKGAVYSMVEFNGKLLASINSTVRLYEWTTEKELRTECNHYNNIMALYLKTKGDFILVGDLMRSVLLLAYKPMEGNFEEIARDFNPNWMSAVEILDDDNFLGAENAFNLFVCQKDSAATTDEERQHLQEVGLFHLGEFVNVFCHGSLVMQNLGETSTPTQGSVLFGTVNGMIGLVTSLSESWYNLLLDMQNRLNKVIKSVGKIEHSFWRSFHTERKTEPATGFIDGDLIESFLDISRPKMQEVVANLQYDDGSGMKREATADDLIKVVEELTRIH", "T2 sequence (Q13620 whole entry partner)": "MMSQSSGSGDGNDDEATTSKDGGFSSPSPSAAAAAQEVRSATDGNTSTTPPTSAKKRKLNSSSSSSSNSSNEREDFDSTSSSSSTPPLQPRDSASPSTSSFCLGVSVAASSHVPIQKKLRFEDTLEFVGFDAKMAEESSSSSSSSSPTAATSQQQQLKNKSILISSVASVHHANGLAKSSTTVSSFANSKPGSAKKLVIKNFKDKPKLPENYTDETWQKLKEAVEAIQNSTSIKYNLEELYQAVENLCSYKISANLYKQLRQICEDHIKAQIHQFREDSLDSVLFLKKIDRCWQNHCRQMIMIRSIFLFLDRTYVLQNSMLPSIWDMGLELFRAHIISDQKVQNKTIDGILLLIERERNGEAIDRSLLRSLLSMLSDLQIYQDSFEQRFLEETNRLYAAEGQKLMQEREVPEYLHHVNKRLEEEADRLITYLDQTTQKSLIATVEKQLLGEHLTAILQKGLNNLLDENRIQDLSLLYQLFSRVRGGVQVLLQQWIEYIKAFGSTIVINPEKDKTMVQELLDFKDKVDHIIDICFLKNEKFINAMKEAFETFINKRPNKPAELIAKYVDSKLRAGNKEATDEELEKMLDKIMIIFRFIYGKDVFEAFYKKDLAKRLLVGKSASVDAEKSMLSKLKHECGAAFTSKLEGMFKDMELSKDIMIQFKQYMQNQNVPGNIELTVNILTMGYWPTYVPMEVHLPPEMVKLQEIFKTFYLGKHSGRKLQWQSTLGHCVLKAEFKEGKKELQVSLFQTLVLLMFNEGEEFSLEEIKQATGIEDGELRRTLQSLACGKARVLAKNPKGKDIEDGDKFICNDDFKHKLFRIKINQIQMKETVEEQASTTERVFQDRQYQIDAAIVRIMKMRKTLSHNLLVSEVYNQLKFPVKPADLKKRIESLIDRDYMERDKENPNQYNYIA", "T2 sequence (P62877 whole entry partner)": "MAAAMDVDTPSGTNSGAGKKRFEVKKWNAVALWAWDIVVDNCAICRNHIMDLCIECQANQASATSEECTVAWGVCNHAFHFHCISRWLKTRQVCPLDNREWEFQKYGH", "assay": "CCNK destabilization/degradation (expression proteomics and Western blot)", "conditions": "wild-type KBM7 cells", "protocol": "as §1\n(§4) Subsequently, a total of 53 structurally related analogue compounds in dose-ranging viability assays in KBM7 wildtype- and UBE2M^mut cells was tested to develop a structure-activity relationship for the assayed compounds. This informed on sites amenable for derivatization of analogs (FIG. 20a), and also to the identification of structurally similar small molecules with no measurable activity that are thus suited negative controls. […] CRL activity-dependent degradation of CCNK could be rescued by pharmacologic NAE inhibition and by blocking the ubiquitin activating enzyme UBA1, particularly by pretreating the cells with 1 μM carfilzomib (Selleckchem, S2853), 1 μM MLN4924 (Selleckchem, S7109), 10 μM TAK-243 (MedChemExpress, HY-100487) or 1 μM THZ531 (MedChemExpress HY-103618) (FIG. 19d). Furthermore, treatment with the selective covalent CDK12/13 inhibitor THZ531, which binds to the ATP binding pocket of CDK12/13, rescued CCNK degradation (FIG. 19d) indicating the role of the active site of CDK12/13 for CRL activity-dependent CCNK degradation by the identified compounds (FIG. 19d).\nas §2, §3"}, "cyclin K (CCNK)": {"molecular_target": "T3, cyclin K (CCNK) (Homo sapiens, UniProt Q16531+Q9NYV4)", "T3 construct": "endogenous in cells; host or cells: KBM7 cells (WT and UBE2M/CUL4B/UBE2G1 mutant clones)", "T3 sequence (O75909 whole entry partner)": "as the sequence (O75909 whole entry partner) above", "T3 sequence (Q9NYV4 whole entry)": "as the sequence (Q9NYV4 whole entry, further chain) above", "T3 sequence (Q16531 2-1140 limits assumed)": "as the sequence (Q16531 2-1140 limits assumed, further chain) above", "T3 sequence (Q13620 whole entry partner)": "as the sequence (Q13620 whole entry partner) above", "T3 sequence (P62877 whole entry partner)": "as the sequence (P62877 whole entry partner) above", "assay": "CCNK destabilization/degradation (expression proteomics and Western blot)", "conditions": "for effect on CCNK upon inactivation of DDB1, UBE2G1 and UBE2M: CRISPR-inactivated KBM7 cells", "protocol": "as §1, §4, §2, §3"}, "CDK12/13 [3]": {"molecular_target": "T4, CDK12/13 (Homo sapiens, UniProt Q14004)", "T4 construct": "endogenous in cells; host or cells: KBM7 cells", "assay": "CDK12/13 destabilization (expression proteomics and Western blot)", "conditions": "expression proteomics, drug vs DMSO; Table 4, log2FC < −0.3", "protocol": "as §1, §2, §3"}, "[4]": {"conditions": "expression proteomics, drug vs DMSO, Table 4, log2FC < −0.3"}}, "data": [{"smiles": "O=C(CSc1nnc2c(n1)[nH]c1ccccc12)Nc1ccc(Cl)cn1", "note": "[IC020772.1]", "values": [{"measurement": "log2FC (IC020772.1/DMSO)", "setting": "CDK12/13 [1]; CDK12 (Q9NYV4-1)", "value": "−1.171"}, {"measurement": "CCNK destabilization", "setting": "[2]", "value": "destabilization of cyclin K (CCNK)"}, {"measurement": "effect on CCNK upon inactivation of DDB1, UBE2G1 and UBE2M", "setting": "cyclin K (CCNK)", "value": "abrogated"}]}, {"smiles": "Cc1ccc(C(=O)N2CSCC2C(=O)N=c2[nH]cc(C)s2)o1", "note": "(stereo not shown) [Compound T6938051]", "values": [{"measurement": "CCNK destabilization", "setting": "[2]", "value": "destabilization of cyclin K (CCNK)"}, {"measurement": "effect on CCNK upon inactivation of DDB1, UBE2G1 and UBE2M", "setting": "cyclin K (CCNK)", "value": "abrogated"}]}, {"smiles": "O=C(CSc1nc2ccccc2[nH]1)Nc1ccc(Cl)cn1", "note": "[IC021313.2]", "values": [{"measurement": "logFC (IC021313.2/DMSO), CDK12 (Q9NYV4-1)", "setting": "CDK12/13 [1]; [4]", "value": "−0.897"}, {"measurement": "logFC (IC021313.2/DMSO), CDK13 (Q14004-2)", "setting": "CDK12/13 [3]", "value": "−0.6574"}, {"measurement": "CCNK destabilization", "setting": "[2]", "value": "destabilization of cyclin K (CCNK)"}, {"measurement": "effect on CCNK upon inactivation of DDB1, UBE2G1 and UBE2M", "setting": "cyclin K (CCNK)", "value": "abrogated"}, {"measurement": "logFC (IC021313.2/DMSO), CCNK (O75909-3)", "setting": "cyclin K (CCNK); [4]", "value": "−0.873"}]}]}
